Measurements from US11000033B2, “Ketone or oxime compound, and herbicide” (NISSAN CHEMICAL CORPORATION, priority 2014, dated 2021).

Legend:
Format in all cases: in vivo
[1] = tested on: Echinochloa oryzacola Vasing.; assay: Test Example 1: herbicidal activity, application before weed generation in submerged conditions (symbol A); settings: application herbicide amount 320 g/ha
In short: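 Paddy pre-emergence test. Formulated emulsion, water-diluted to a predetermined rate, is applied to floodwater on sowing day; rice transplanted at 2.5 leaves. Effect read at 3 weeks on a 0–5 herbicidal-ratio scale.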

[2] = tested on: Cyperus difformis; assay: Test Example 3: herbicidal effect by foliage application, Wagner pot (symbol E); settings: application herbicide amount 320 g/ha
In short: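 Weeds and rice were sown in alluvial soil under 0.1–0.5 cm of standing water and grown for 14 days in a 25–30 °C greenhouse. An emulsion of the compound, diluted in water to a set dose, was sprayed evenly onto the foliage. Effect was scored against fixed criteria 3 weeks after treatment.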

[3] = tested on: Apera spica-venti; assay: Test Example 4: herbicidal effect by soil treatment (symbol L); settings: application herbicide amount 320 g/ha
In short: (§1)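 Seeds were sown in sterilized diluvial soil, covered with about 1.5 cm of soil, and the soil surface was sprayed with a water-diluted emulsion of the compound at a predetermined rate. Plants grew in a greenhouse at 25° C. to 30° C.; effects were scored visually 3 weeks after application.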

[4] = tested on: Abutilon theophrasti; assay: Test Example 4: herbicidal effect by soil treatment (symbol M); settings: application herbicide amount 320 g/ha
In short: as §1

[5] = tested on: Amaranthus retroflexus; assay: Test Example 4: herbicidal effect by soil treatment (symbol N); settings: application herbicide amount 320 g/ha
In short: as §1

[6] = tested on: Veronica persica; assay: Test Example 4: herbicidal effect by soil treatment (symbol R); settings: application herbicide amount 320 g/ha
In short: as §1

[7] = tested on: wheat; assay: Test Example 4: effect on crop by soil treatment (symbol e); settings: application herbicide amount 320 g/ha
In short: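 Steps: fill box with sterilized diluvial soil; sow seed spot-like; cover with ~1.5 cm soil; grow in greenhouse (25° C. to 30° C.).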

[8] = tested on: Chenopodium album; assay: Test Example 5: herbicidal effect by foliage application, plastic box (symbol O); settings: 320 g/ha, 3 weeks after application
In short: (§2)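 After sowing into sterilized diluvial soil and growing two weeks under glass at 25° C. to 30° C., seedlings receive a uniform foliar spray of diluted emulsion. Damage is judged visually three weeks on.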

[9] = tested on: Veronica persica; assay: Test Example 5: herbicidal effect by foliage application, plastic box (symbol R); settings: 320 g/ha, 3 weeks after application
In short: as §2

[10] = tested on: corn; assay: Test Example 5: effect on crop by foliage application, plastic box (symbol c); settings: 320 g/ha, 3 weeks after application
In short: (§3)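 Seeds were sown in spots in sterilized diluvial soil held in a plastic box 21 cm × 13 cm × 7 cm deep, covered with about 1.5 cm of soil, and grown in a greenhouse at 25° C. to 30° C.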

[11] = tested on: soybean; assay: Test Example 5: effect on crop by foliage application, plastic box (symbol d); settings: 320 g/ha, 3 weeks after application
In short: as §3

[12] = tested on: Galium spurium; assay: Test Example 5: herbicidal effect by foliage application, plastic box (symbol Q); settings: 320 g/ha, 3 weeks after application
In short: as §2

CON=CC1CC(O)=C(c2c(C)cc(C)cc2C)C1=O (mixture of isomers) [3-001]
Herbicidal effect grade, A: Echinochloa oryzacola Vasing. [1]: 0 (Herbicidal ratio of 5% or lower (almost no effect)) | herbicidal effect on E, grade 0-5 [2]: 0 (Herbicidal ratio of 5% or lower (almost no effect)) | L: Apera spica-venti, herbicidal effect grade [3]: 5 (Herbicidal ratio of 90% or more (almost completely withered)) | M: Abutilon theophrasti, herbicidal effect grade [4]: 0 (Herbicidal ratio of 5% or lower (almost no effect)) | N: Amaranthus retroflexus, herbicidal effect grade [5]: 0 (Herbicidal ratio of 5% or lower (almost no effect)) | R: Veronica persica, herbicidal effect grade [6]: 0 (Herbicidal ratio of 5% or lower (almost no effect)) | e: wheat, effect on crop grade [7]: 0 (Herbicidal ratio of 5% or lower (almost no effect)) | O: Chenopodium album, herbicidal effect grade [8]: 0 (Herbicidal ratio of 5% or lower (almost no effect)) | R: Veronica persica, herbicidal effect grade [9]: 0 (Herbicidal ratio of 5% or lower (almost no effect)) | c: corn, effect on crop grade [10]: 2 (Herbicidal ratio of 20% or higher and lower than 40%) | d: soybean, effect on crop grade [11]: 0 (Herbicidal ratio of 5% or lower (almost no effect))

CON=C(C)CC1CC(O)=C(c2c(C)cc(-c3ccc(C(F)(F)F)cc3)cc2C)C1=O (mixture of isomers) [6-016]
Herbicidal effect grade, A: Echinochloa oryzacola Vasing. [1]: 5 (Herbicidal ratio of 90% or more (almost completely withered)) | herbicidal effect on E, grade 0-5 [2]: 1 (Herbicidal ratio of 5% or higher and lower than 20%) | L: Apera spica-venti, herbicidal effect grade [3]: 5 (Herbicidal ratio of 90% or more (almost completely withered)) | M: Abutilon theophrasti, herbicidal effect grade [4]: 0 (Herbicidal ratio of 5% or lower (almost no effect)) | N: Amaranthus retroflexus, herbicidal effect grade [5]: 2 (Herbicidal ratio of 20% or higher and lower than 40%) | R: Veronica persica, herbicidal effect grade [6]: 0 (Herbicidal ratio of 5% or lower (almost no effect)) | e: wheat, effect on crop grade [7]: 0 (Herbicidal ratio of 5% or lower (almost no effect)) | O: Chenopodium album, herbicidal effect grade [8]: 3 (Herbicidal ratio of 40% or higher and lower than 70%) | R: Veronica persica, herbicidal effect grade [9]: 3 (Herbicidal ratio of 40% or higher and lower than 70%) | c: corn, effect on crop grade [10]: 5 (Herbicidal ratio of 90% or more (almost completely withered)) | d: soybean, effect on crop grade [11]: 0 (Herbicidal ratio of 5% or lower (almost no effect))

CON=C(C)CC1CC(O)=C(c2c(C)cc(-c3ccc(C)cc3)cc2C)C1=O (mixture of isomers) [6-018]
Herbicidal effect grade, A: Echinochloa oryzacola Vasing. [1]: 5 (Herbicidal ratio of 90% or more (almost completely withered)) | herbicidal effect on E, grade 0-5 [2]: 5 (Herbicidal ratio of 90% or more (almost completely withered)) | L: Apera spica-venti, herbicidal effect grade [3]: 5 (Herbicidal ratio of 90% or more (almost completely withered)) | M: Abutilon theophrasti, herbicidal effect grade [4]: 0 (Herbicidal ratio of 5% or lower (almost no effect)) | N: Amaranthus retroflexus, herbicidal effect grade [5]: 0 (Herbicidal ratio of 5% or lower (almost no effect)) | R: Veronica persica, herbicidal effect grade [6]: 0 (Herbicidal ratio of 5% or lower (almost no effect)) | e: wheat, effect on crop grade [7]: 0 (Herbicidal ratio of 5% or lower (almost no effect)) | O: Chenopodium album, herbicidal effect grade [8]: 3 (Herbicidal ratio of 40% or higher and lower than 70%) | R: Veronica persica, herbicidal effect grade [9]: 4 (Herbicidal ratio of 70% or higher and lower than 90%) | c: corn, effect on crop grade [10]: 5 (Herbicidal ratio of 90% or more (almost completely withered)) | d: soybean, effect on crop grade [11]: 3 (Herbicidal ratio of 40% or higher and lower than 70%)

Cc1cc(C)c(C2=C(O)CC(CC(=O)Cc3ccccc3)C2=O)c(C)c1 (stereo not shown) [2-015]
Herbicidal effect grade, A: Echinochloa oryzacola Vasing. [1]: 0 (Herbicidal ratio of 5% or lower (almost no effect)) | herbicidal effect on E, grade 0-5 [2]: 0 (Herbicidal ratio of 5% or lower (almost no effect)) | L: Apera spica-venti, herbicidal effect grade [3]: 3 (Herbicidal ratio of 40% or higher and lower than 70%) | M: Abutilon theophrasti, herbicidal effect grade [4]: 0 (Herbicidal ratio of 5% or lower (almost no effect)) | N: Amaranthus retroflexus, herbicidal effect grade [5]: 0 (Herbicidal ratio of 5% or lower (almost no effect)) | e: wheat, effect on crop grade [7]: 0 (Herbicidal ratio of 5% or lower (almost no effect)) | O: Chenopodium album, herbicidal effect grade [8]: 0 (Herbicidal ratio of 5% or lower (almost no effect)) | Q: Galium spurium, herbicidal effect grade [12]: 0 (Herbicidal ratio of 5% or lower (almost no effect)) | R: Veronica persica, herbicidal effect grade [9]: 0 (Herbicidal ratio of 5% or lower (almost no effect)) | c: corn, effect on crop grade [10]: 4 (Herbicidal ratio of 70% or higher and lower than 90%) | d: soybean, effect on crop grade [11]: 1 (Herbicidal ratio of 5% or higher and lower than 20%)

Cc1cc(C)c(C2=C(O)CC(CC(=O)C(C)C)C2=O)c(C)c1 (stereo not shown) [2-016]
Herbicidal effect grade, A: Echinochloa oryzacola Vasing. [1]: 4 (Herbicidal ratio of 70% or higher and lower than 90%) | herbicidal effect on E, grade 0-5 [2]: 4 (Herbicidal ratio of 70% or higher and lower than 90%) | L: Apera spica-venti, herbicidal effect grade [3]: 2 (Herbicidal ratio of 20% or higher and lower than 40%) | M: Abutilon theophrasti, herbicidal effect grade [4]: 0 (Herbicidal ratio of 5% or lower (almost no effect)) | N: Amaranthus retroflexus, herbicidal effect grade [5]: 0 (Herbicidal ratio of 5% or lower (almost no effect)) | e: wheat, effect on crop grade [7]: 0 (Herbicidal ratio of 5% or lower (almost no effect)) | O: Chenopodium album, herbicidal effect grade [8]: 0 (Herbicidal ratio of 5% or lower (almost no effect)) | Q: Galium spurium, herbicidal effect grade [12]: 0 (Herbicidal ratio of 5% or lower (almost no effect)) | R: Veronica persica, herbicidal effect grade [9]: 0 (Herbicidal ratio of 5% or lower (almost no effect)) | c: corn, effect on crop grade [10]: 4 (Herbicidal ratio of 70% or higher and lower than 90%) | d: soybean, effect on crop grade [11]: 3 (Herbicidal ratio of 40% or higher and lower than 70%)

CCc1cc(Br)cc(C)c1C1=C(O)CC(CC(C)=NOC)C1=O (stereo not shown) [6-001]
Herbicidal effect grade, A: Echinochloa oryzacola Vasing. [1]: 5 (Herbicidal ratio of 90% or more (almost completely withered)) | herbicidal effect on E, grade 0-5 [2]: 0 (Herbicidal ratio of 5% or lower (almost no effect)) | L: Apera spica-venti, herbicidal effect grade [3]: 5 (Herbicidal ratio of 90% or more (almost completely withered)) | M: Abutilon theophrasti, herbicidal effect grade [4]: 0 (Herbicidal ratio of 5% or lower (almost no effect)) | N: Amaranthus retroflexus, herbicidal effect grade [5]: 0 (Herbicidal ratio of 5% or lower (almost no effect)) | e: wheat, effect on crop grade [7]: 5 (Herbicidal ratio of 90% or more (almost completely withered)) | O: Chenopodium album, herbicidal effect grade [8]: 0 (Herbicidal ratio of 5% or lower (almost no effect)) | Q: Galium spurium, herbicidal effect grade [12]: 0 (Herbicidal ratio of 5% or lower (almost no effect)) | R: Veronica persica, herbicidal effect grade [9]: 0 (Herbicidal ratio of 5% or lower (almost no effect)) | c: corn, effect on crop grade [10]: 5 (Herbicidal ratio of 90% or more (almost completely withered)) | d: soybean, effect on crop grade [11]: 0 (Herbicidal ratio of 5% or lower (almost no effect))

CCc1cc(Br)cc(C)c1C1=C(O)CC(C(C(=O)OC)C(C)=NOC)C1=O (stereo not shown) [6-002]
Herbicidal effect grade, A: Echinochloa oryzacola Vasing. [1]: 3 (Herbicidal ratio of 40% or higher and lower than 70%) | herbicidal effect on E, grade 0-5 [2]: 0 (Herbicidal ratio of 5% or lower (almost no effect)) | L: Apera spica-venti, herbicidal effect grade [3]: 4 (Herbicidal ratio of 70% or higher and lower than 90%) | M: Abutilon theophrasti, herbicidal effect grade [4]: 0 (Herbicidal ratio of 5% or lower (almost no effect)) | N: Amaranthus retroflexus, herbicidal effect grade [5]: 0 (Herbicidal ratio of 5% or lower (almost no effect)) | e: wheat, effect on crop grade [7]: 0 (Herbicidal ratio of 5% or lower (almost no effect)) | O: Chenopodium album, herbicidal effect grade [8]: 0 (Herbicidal ratio of 5% or lower (almost no effect)) | Q: Galium spurium, herbicidal effect grade [12]: 0 (Herbicidal ratio of 5% or lower (almost no effect)) | R: Veronica persica, herbicidal effect grade [9]: 0 (Herbicidal ratio of 5% or lower (almost no effect)) | c: corn, effect on crop grade [10]: 5 (Herbicidal ratio of 90% or more (almost completely withered)) | d: soybean, effect on crop grade [11]: 0 (Herbicidal ratio of 5% or lower (almost no effect))

CON=C(C)CC1CC(O)=C(c2c(C)cc(Br)cc2C)C1=O (stereo not shown) [6-003]
Herbicidal effect grade, A: Echinochloa oryzacola Vasing. [1]: 5 (Herbicidal ratio of 90% or more (almost completely withered)) | herbicidal effect on E, grade 0-5 [2]: 5 (Herbicidal ratio of 90% or more (almost completely withered)) | L: Apera spica-venti, herbicidal effect grade [3]: 5 (Herbicidal ratio of 90% or more (almost completely withered)) | M: Abutilon theophrasti, herbicidal effect grade [4]: 5 (Herbicidal ratio of 90% or more (almost completely withered)) | N: Amaranthus retroflexus, herbicidal effect grade [5]: 3 (Herbicidal ratio of 40% or higher and lower than 70%) | e: wheat, effect on crop grade [7]: 0 (Herbicidal ratio of 5% or lower (almost no effect)) | O: Chenopodium album, herbicidal effect grade [8]: 1 (Herbicidal ratio of 5% or higher and lower than 20%) | Q: Galium spurium, herbicidal effect grade [12]: 3 (Herbicidal ratio of 40% or higher and lower than 70%) | R: Veronica persica, herbicidal effect grade [9]: 0 (Herbicidal ratio of 5% or lower (almost no effect)) | c: corn, effect on crop grade [10]: 5 (Herbicidal ratio of 90% or more (almost completely withered)) | d: soybean, effect on crop grade [11]: 3 (Herbicidal ratio of 40% or higher and lower than 70%)
